Source: US20220411480A1, “ANTITUMOR PEPTIDE AND USE THEREOF” (TOAGOSEI CO., LTD, priority 2018, published 2022)
Residues, ends and D or L forms follow the SMILES beside them.

What was measured:
[1] = Antitumor activity evaluation test (1), cell viability by Cell Counting Kit-8 (WST-8); assay type: cell-based, human; settings: peptide 25 μM, 48 hours, relative to culture medium containing no peptide = 100%; read-out: A2058 cell viability (survival rate)
Method: (§1) The antitumor activity of the sample peptides synthesized in Test Example 1 was evaluated using human-derived cultured tumor cells as targets.
(§2) Specifically, currently commercially available human melanoma (A2058) cell lines were used as test tumor cells. In addition, a normal human mammary epithelial cell culture line (MCF-12F) was used for comparison. Here, culture solutions of respective cells are as follows. • (1) A2058 cells:
(§3) DMEM culture medium including 2 mM L-glutamine, 0.1 mM of non-essential amino acids, 50 units/mL of penicillin, 50 μg/mL of streptomycin, and 10% fetal bovine serum (FBS) (product, commercially available from Wako Pure Chemical Industries, Ltd.). • (2) MCF-12F cells:
(§4) DMEM/F12 culture medium including 20 ng/mL of recombinant EGF, 10 μg/mL of insulin, 0.5 μg/mL of hydrocortisone, and 10% FBS (product, commercially available from Wako Pure Chemical Industries, Ltd.).
(§5) A2058 cells and MCF-12F cells were cultured and prepared so that the number of cells per well in a 96-well plate was about 5×10^3. An amount of the culture medium in this case was 100 μL per well.
(§6) Next, the 96-well plate was placed in a CO2 incubator and pre-incubated under conditions of 37° C. and 5% CO2 for about 1 day (21 hours to 24 hours).
(§7) Then, peptide-containing test culture mediums for each concentration were prepared so that the concentrations of the sample peptides to be evaluated were 12.5 μM and 25 μM, and supplied to wells (that is, wells after the pre-incubation) in which 90μL of cells to be evaluated were cultured in each well. Then, the 96-well plate was returned to the CO2 incubator and incubated under conditions of 37° C. and 5% CO2 for 48 hours.
(§8) Here, the number of test wells (n) at peptide concentrations in peptide addition test groups was set to 3. Therefore, the value of the result shown in the following table is an average value of the results obtained in three test wells. First, the cell viability (%) was determined as follows.
(§9) After the incubation for 48 hours was completed, the culture medium in each well was replaced with 100 μL of a fresh culture medium containing no peptide, and additionally, 10μL of a cell proliferation measurement reagent “Cell Counting Kit-8” (product, commercially available from Dojindo Molecular Technologies, Inc.) containing a “water-soluble tetrazolium salt (WST-8)” as a coloring reagent was added to each well. Then, the 96-well plate was returned to the CO2 incubator and incubated under conditions of 37° C., and 5% CO2 for 1.5 hours to 2 hours.
(§10) After the incubation was completed, the cell culture solution to which the reagent was added was collected and the cell viability (%) was evaluated according to a colorimetric method in which an absorbance at a wavelength of 450 nm (value corrected by the absorbance at a wavelength of 650 nm: A450-A650) was measured based on the reduction of the tetrazolium salt. Specifically, a measured value (measured absorbance) of a comparative test group in which the above incubation was performed for 48 hours simply in a culture medium containing no peptide was set as a cell viability of 100%, and the cell viability (%) was calculated from the measured absorbance of each test cell line as a relative value.
(§11) Specifically, a value (value multiplied by 100 for convenience) obtained by dividing the cell viability of target tumor cells (here, A2058 cells) when the sample peptides were added at a concentration of 12.5 μM or 25 μM measured as described above by the cell viability of comparative normal cells (here, MCF-12F cells) measured under the same conditions, that is,
(§12) {(A2058 cell viability)/(MCF-12F cell viability)}×100 was calculated as a specific cell viability of the tumor cells, and the test tumor cells selective antitumor activity with respect to normal cells was evaluated using such a specific cell viability as an index.

[2] = system: human melanoma (A2058) cell lines; experiment: as above; assay type: cell-based; settings: 48 hours, A2058 versus normal MCF-12F cells
Method: as §1, §2, §3, §4, §5, §6, §7, §8, §9, §10, §11, §12

[3] = Antitumor activity evaluation test (2), cell viability by Cell Counting Kit-8 (WST-8); assay type: cell-based, human; settings: peptide 25 μM, 48 hours, relative to no peptide = 100%; read-out: cell viability of SK-MELS cells
Method: as §5, §6, §7
(§13) Here, the number of test wells (n) at peptide concentrations in peptide addition test groups was set to 3. Therefore, the value of the result shown in the following table is an average value of the results obtained in three test wells. First, the cell viability (%) was determined as follows. […]
as §10
(§14) The antitumor activity and antitumor cell selective antitumor activity of Samples 2 and 6 of Test Example 1, with respect to a plurality of types of human-derived cultured tumor cells were evaluated. […]
(§15) Then, the cell viability was calculated in the same processes as in Test Example 2. […]

[4] = system: human melanoma cell lines (SK-MELS); experiment: as above; assay type: cell-based; settings: SK-MEL5 versus normal MCF-12F cells
Method: as §5, §6, §7, §13, §10, §14, §15

[5] = as above; assay type: cell-based, human; settings: peptide 25 μM, 48 hours, 37° C. without CO2, relative to no peptide = 100%; read-out: cell viability of SW480 cells
Method: as §5, §6, §7, §8, §9, §10
(§16) The antitumor activity and antitumor cell selective antitumor activity of Samples 2 and 6 of Test Example 1, with respect to a plurality of types of human-derived cultured tumor cells were evaluated.
(§17) Specifically, currently commercially available human melanoma cell lines (SK-MELS), human non-small cell lung cancer cell lines (H2444), and human colorectal cancer cell lines (SW480) were used as test tumor cells. In addition, the above MCF-12F cells were used as normal cells for comparison.
(§18) Leibovitz's L-15 culture medium including 100 unit/mL of penicillin, 100 μg/mL of streptomycin, and 10% FBS (product, commercially available from Gibco)
(§19) Here, in the evaluation test using SW480 cell lines, the cells were cultured under conditions of 37° C. and without CO2.
(§20) Then, the cell viability was calculated in the same processes as in Test Example 2. Here, in this test example, the antitumor activity of Sample 6 with respect to SK-MELS cells, the antitumor activity of Sample 2 with respect to H2444 cells, and the antitumor activity of Sample 2 and Sample 6 with respect to SW480 cells were evaluated.
(§21) Next, a specific cell viability was calculated in the same processes as in Test Example 2. That is,
(§22) {(Test tumor cell survival rate)/(MCF-12F cell viability)}×100 was calculated as a specific cell viability of the tumor cells, and a test tumor cells selective antitumor activity with respect to normal cells was evaluated using such a specific cell viability as an index. […]

[6] = system: human colorectal cancer cell lines (SW480); experiment: as above; assay type: cell-based; settings: SW480 versus normal MCF-12F cells
Method: as §5, §6, §7, §8, §9, §10, §16, §17, §18, §19, §20, §21, §22

[7] = as above; assay type: cell-based, human; settings: peptide 25 μM, 48 hours, relative to no peptide = 100%; read-out: cell viability of H2444 cells
Method: as §5, §6, §7, §13, §10, §14, §15

[8] = system: human non-small cell lung cancer cell lines (H2444); experiment: as above; assay type: cell-based; settings: H2444 versus normal MCF-12F cells
Method: as §5, §6, §7, §13, §10, §14, §15

Compound	viability [1]	Specific cell viability {(A2058 cell viability)/(MCF-12F cell viability)}×100 ([2]; peptide 12.5 μM)	Specific cell viability {(A2058 cell viability)/(MCF-12F cell viability)}×100 ([2]; peptide 25 μM)	viability [3]	Specific cell viability {(Test tumor cell survival rate)/(MCF-12F cell viability)}×100 ([4]; peptide 12.5 μM)	Specific cell viability {(Test tumor cell survival rate)/(MCF-12F cell viability)}×100 ([4]; peptide 25 μM)	viability [5]	Specific cell viability {(Test tumor cell survival rate)/(MCF-12F cell viability)}×100 ([6]; peptide 12.5 μM)	Specific cell viability {(Test tumor cell survival rate)/(MCF-12F cell viability)}×100 ([6]; peptide 25 μM)	viability [7]	Specific cell viability {(Test tumor cell survival rate)/(MCF-12F cell viability)}×100 ([8]; peptide 12.5 μM)	Specific cell viability {(Test tumor cell survival rate)/(MCF-12F cell viability)}×100 ([8]; peptide 25 μM)
CSCC[C@H](NC(=O)[C@H](C)NC(=O)[C@@H](N)CC(C)C)C(=O)N[C@@H](C)C(=O)N[C@@H](C)C(=O)N[C@@H](C)C(=O)N[C@@H](C)C(=O)N[C@@H](Cc1c[nH]c2ccccc12)C(=O)NCC(=O)N[C@H](C(=O)N[C@@H](CO)C(=O)N[C@@H](CC(C)C)C(=O)N[C@@H](CC(C)C)C(=O)N[C@@H](CC(C)C)C(=O)NCC(=O)N[C@@H](CC(C)C)C(=O)N[C@@H](CC(C)C)C(=O)N1CCC[C@H]1C(=O)N[C@@H](C)C(=O)N[C@@H](CC(C)C)C(=O)NCC(=O)N[C@@H](CCCNC(=N)N)C(=O)N[C@@H](CCCCN)C(=O)N[C@@H](CCCCN)C(=O)N[C@@H](CCCNC(=N)N)C(=O)N[C@@H](CCCNC(=N)N)C(=O)N[C@@H](CCC(N)=O)C(=O)N[C@@H](CCCNC(=N)N)C(=O)N[C@@H](CCCNC(=N)N)C(=O)N[C@@H](CCCNC(=N)N)C(N)=O)C(C)C [Sample 6] (H-LAMAAAAWGVSLLLGLLPALGRKKRRQRRR-NH2; N-terminus assumed)	0.5%	40	5.88	1.9%	0.25	0.22	20.2%	1.14	2.38			
CC[C@H](C)[C@H](NC(=O)[C@H](CC(N)=O)NC(=O)[C@@H](NC(=O)[C@@H](N)CC(C)C)C(C)C)C(=O)N[C@H](C(=O)N[C@@H](CC(C)C)C(=O)N[C@@H](CO)C(=O)N[C@@H](CC(=O)O)C(=O)N[C@@H](CC(C)C)C(=O)N[C@@H](CC(C)C)C(=O)N[C@H](C(=O)NCC(=O)N[C@@H](C)C(=O)N[C@@H](C)C(=O)N[C@@H](Cc1ccc(O)cc1)C(=O)N[C@@H](CC(C)C)C(=O)N[C@@H](C)C(=O)N[C@@H](CC(N)=O)C(=O)N[C@H](C(=O)N[C@@H](CC(C)C)C(=O)N[C@@H](CC(C)C)C(=O)N[C@@H](CCCNC(=N)N)C(=O)N[C@@H](CCCCN)C(=O)N[C@@H](CCCCN)C(=O)N[C@@H](CCCNC(=N)N)C(=O)N[C@@H](CCCNC(=N)N)C(=O)N[C@@H](CCC(N)=O)C(=O)N[C@@H](CCCNC(=N)N)C(=O)N[C@@H](CCCNC(=N)N)C(=O)N[C@@H](CCCNC(=N)N)C(N)=O)C(C)C)[C@@H](C)O)[C@@H](C)O [Sample 2] (H-LVNITLSDLLTGAAYLANVLLRKKRRQRRR-NH2; N-terminus assumed)	0.1%	4.79	1.96				2.3%	2.98	0.45	2.1%	0.22	0.41
